Results on 25 molecules are retold here after patent US6165493A, “"Methods and compositions for decreasing the frequency of HIV, herpesvirus and sexually transmitted bacterial infections"” (New York Blood Center, Inc., priority 1998, dated 2000).

For data set [1], the system named is HIV-1. Put plainly: inhibition of fusion between HIV-1 IIIB infected H9 cells and uninfected MT-2 cells. It counts as cell-based. Particulars: Human immunodeficiency virus 1, MT2, 1 h, read-out: Inhibition of Cell Fusion ED50 ± SD (effective dose for 50% inhibition of HIV-1 induced cell fusion); Table 1A; -- = none at 1000 μg/ml.
Data set [2] relates to HIV-1. Put plainly: disintegration of HIV-1 measured by release of p24. Particulars: 5 minutes at 37° C. More on the design: species or system HIV-1 IIIB. How it is done:
With respect of FIG. 3, serial dilutions of untreated and treated HIV-1 were tested for p24 by ELISA. As a positive control, HIV-1 treated with the detergent NP40 was also tested. The results obtained with the "[…]"-glycerol formulation containing PVP and Crospovidone and N-40 were identical and indicated an 100-fold increase of released p24 antigen, as compared to background levels corresponding to untreated virus. The infectivity of HIV-1 was also eliminated by treatment with the "[…]"-glycerol formulation containing PVP and Crospovidone.
To determine whether or not the CAP Formulations affect the integrity of HIV-1, a preparation of purified virus (strain IIIB; 5 μl; 1.52×10^10 virus particles/ml; Advanced Biotechnologies, Columbia, Md.) was mixed with 45 μl of 0.14 M NaCl and 50 μl of the respective CAP Formulation, each prewarmed to 37° C. After 5 minutes at 37° C., 400 μl of 0.14 M NaCl were added, and the mixture was filtered through a 0.45μ filter prewashed with 0.14 M NaCl, 0.01 M Tris pH 7.2, 0.02 NaN3 (TS). Serial 5-fold dilutions of the filtrate were tested by ELISA for the p24 antigen, as described above. In control experiments, either untreated HIV-1 IIIB or virus treated with the detergent NP40 (final concentration 5 mg/ml; 5 minutes at 37° C.) were equally diluted and tested for the p24 antigen. […]

In data set [3] the test system is HIV-1. Particulars: cited from earlier work.
For another data set, the system named is HSV-2. Particulars: cited from earlier work.
The next data set concerns Chlamydia trachomatis. Particulars: cited from earlier work.
The conditions of data set [4]: some N-9 formulations; cited from earlier work.
Data set [5] concerns heterosexual HIV-1, gonorrhea and chlamydia transmission. Particulars: one of the N-9 formulations; cited from earlier work.

Peptide text beside a SMILES is read from it.

Regarding `CC1=CC(=O)NS(=O)(=O)O1` [Acesulfame Potassium], the IC50 in the data set on HIV-1 [1] is > 1000 µg/mL. The same measure, in the same setting: the value for `CCCCCCCCCCCCCCCC(=O)OC[C@H](O)[C@H]1OC(=O)C(O)=C1O` [Ascorbyl Palmitate] was > 1000 µg/mL; that for `COC(=O)[C@H](Cc1ccccc1)NC(=O)[C@@H](N)CC(=O)O` [Aspartame] (HELM PEPTIDE1{D.F.[CO[*:1]]}$$$$V2.0) was > 1000 µg/mL; that for `O=C(OCc1ccccc1)c1ccccc1` [Benzyl Benzoate] was > 1000 µg/mL.

Consider `O=[N+]([O-])C(Br)(CO)CO` [Bronopol], for which, in the data set with HIV-1 [1], the IC50 is > 1000 µg/mL.

As to `Cc1cc(C(C)(C)C)c(O)c(C(C)(C)C)c1` [Butylated Hydroxytoluene], the IC50 in the data set with HIV-1 [1] was > 1000 µg/mL. Same read-out and setting: as for `CCCCOC(=O)c1ccc(O)cc1` [Butylparaben], the figure is > 1000 µg/mL. The same measure, in the same setting: the value for `Cc1cc(O)ccc1Cl` [Chlorocresol] was > 1000 µg/mL. Still for that read-out and setting: the value for `CCCCOC(=O)CCCCCCCCC(=O)OCCCC` [Dibutyl Sebacate] was > 1000 µg/mL; that for `CCOC(=O)c1ccc(O)cc1` [Ethylparaben] was > 1000 µg/mL; that for `O=C(NCNC(=O)NC1C(=O)NC(=O)N1CO)NC1C(=O)NC(=O)N1CO` (centres unmarked) [Imidurea] was > 1000 µg/mL.

Regarding `Cc1occc(=O)c1O` [Maltol], the IC50 in the data set with HIV-1 [1] was > 1000 µg/mL. Regarding `CC1CCC(C(C)C)C(O)C1` (centres unmarked) [Menthol], in the data set with HIV-1 [1], the IC50 is > 1000 µg/mL. Consider `COC(=O)c1ccc(O)cc1` [Methylparaben], for which the IC50 in the data set on HIV-1 [1] was > 1000 µg/mL.

On to `CCCOC(=O)c1cc(O)c(O)c(O)c1` [Propyl Gallate], for which the IC50 in the data set on HIV-1 [1] was > 1000 µg/mL. The same measure, in the same setting: the value for `CC1COC(=O)O1` (centres unmarked) [Propylene Carbonate] was > 1000 µg/mL; that for `CCCOC(=O)c1ccc(O)cc1` [Propylparaben] was > 1000 µg/mL. For the molecule `O=C1NS(=O)(=O)c2ccccc21` [Saccharin], the IC50 in the data set with HIV-1 [1] was > 1000 µg/mL. Same read-out and setting: as for `O=S(=O)(O)NC1CCCCC1` [Sodium Cyclamate], the figure is > 1000 µg/mL. The same measure, in the same setting: as for `CCCCCCCCCCCCCCCCCCOC(=O)/C=C/C(=O)[O-].[Na+]` [Sodium Stearyl Fumarate], the figure is > 1000 µg/mL; as for `C/C=C/C=C/C(=O)O` [Sorbic Acid], > 1000 µg/mL. Consider `CC(=O)OCC(COC(C)=O)OC(C)=O` [Triacetin], for which, in the data set on HIV-1 [1], the IC50 was > 1000 µg/mL. Take `COc1cc(C=O)ccc1O` [Vanillin]: the IC50 in the data set on HIV-1 [1] was > 1000 µg/mL.

As for NP40, the “increase of released p24 antigen compared to untreated virus” value with HIV-1 [2] was found to be 100 fold. Consider nonoxynol-9 [N-9], for which the “in vitro inactivation of HIV-1” value with HIV-1 [3] is on record as “shown to inactivate in vitro”. Further, the “in vitro inactivation of HSV-2” value in the data set with HSV-2 is listed as “shown to inactivate in vitro”. Further, in the data set on Chlamydia trachomatis, the “in vitro inactivation of Chlamydia trachomatis” value is recorded as “shown to inactivate in vitro”. For the same molecule, the clinical adverse effects result in data set [4] is on record as “adverse effects”. For the same molecule, in data set [5], the “efficacy in decreasing rate of heterosexual HIV-1, gonorrhea and chlamydia transmission” value is listed as “lack of efficacy”.
